The source of these data is US7871978B2, “Bone tropic peptides” (University of Virginia Patent Foundation, priority 2004, dated 2011).

For assay [1], the system named is bovine aortic endothelial cells. Description: Effect of peptides on adherent bovine aortic endothelial cells on fibronectin or collagen. Type of assay: cell-based. The conditions noted are these: 0.1M biotinylated peptide, 1 hour; cells adhered four hours on fibronectin or collagen. As to the method:
Peptides from the phage display project were added to bovine aortic endothelial cells in culture. The endothelial cells had adhered to a surface coated with collagen or with fibronectin.
Experiment 1: Bovine aortic endothelial cells were plated on glass slides that were coated either fibronectin or collagen. The cell density was 5,000 cells/well. After the cells adhered for four hours, 0.1M of biotinylated peptide was added to each well. The following peptides were used: L1, L2, L5, L6, L7, L12, L13, L14, L19, R1, R3, and R8.
To perform this experiment, the media was removed and the cells were rinsed with 1×PBS plus 1% BSA three times. Peptides were diluted in 1×PBS plus 1% BSA, added to cells and incubated for 1 hour. The cells were rinsed three times with 1% BSA in PBS, and fixed with 2% parafomaldehyde. Aldehyde groups were blocked with 0.2 M HCl-glycine in PBS, the cells were rinsed three times with 1% BSA in PBS and ExtrAvidin-FITC (1:200 dilution) was added and incubated overnight at 4° C. The cells were rinsed three times with 1% BSA in PBS. The chambers and the gasket were removed from each slide, Vectashield was added, covered and viewed on a Nikon microscope. Images were acquired using a Coolsnap digital camera and Metavue software. […]
Experiment 3: The cells were adherent for about 6 hours and peptides at various concentrations were added to the cells. The concentrations of each of the peptides used in this experiment were: 0.1M, 0.01M, 0.001M and 0.0001M biotinylated peptide. The following peptides were tested: L1, L5, L6, L7, L13, L14, R1, R3, R8, DIP1 and PBS control (SEQ ID NOs:1, 3, 4, 5, 8, 9, 11, 13, 14, and 29).

Assay [2] has as its system bone and bone marrow. Description: In vivo biopanning with 12-mer peptide phage display library. Also noted: species or system BALB/c mice. The conditions noted are these: for PERCENT FREQUENCY: phage eluted from bone and bone marrow; for PHAGE SEQUENCE FREQUENCY (number of times the sequence was found in a group of plaques): phage eluted from bone and bone marrow after repeated rounds. An excerpt:
The Ph.D.-12 Phage Display Peptide Library Kit (New England Biolabs, Beverly, Mass.) used in this study is based on a combinatorial library of random peptide 12-mers fused to a minor coat protein (pIII). […] The peptide is followed by a short spacer of four amino acid residues, the first three residues of which are glycine and the fourth of which is serine, and then the wild-type III sequence. The library consists of approximately 2.7×10^9 electroporated sequences, amplified once to yield approximately 55 copies of each sequence.
For in vivo biopanning, BALB/c mice 8 weeks of age were injected 3.4×10^10 pfu of phage into the heart. The animals were euthanized after 5 minutes, and the tissues (bone, bone marrow, kidney, liver, and spleen) were collected for analysis. The bound phage was eluted according the manufacturer's instructions. The eluted phage was titered, amplified, purified, and injected again at the same concentration.
The frequency of each peptide in bone and bone marrow was compared with its location in other tissues such as liver, kidney, lung, spleen, and brain. Thirteen unique peptide sequences eluted from bone and marrow were identified were identified by sequencing phage DNA. The peptides were synthesized using the polystyrene solid support on a Protein Technologies Symphony Multiple Channel Synthesizer.

Assay [3] concerns Unicortical femoral defects. Put plainly: Peptide-mediated osteogenesis in cortical bone defects (Example 8). The class given is in vivo, Fisher 344 rats. The conditions noted are these: 100 mM peptide in gelfoam, two weeks postoperatively; for Effectiveness at stimulating osteogenesis and cortical bone repair: versus gelfoam+PBS. As to the method:
In an in vivo study, all 13 peptides at a concentration of 100 mM were tested for their ability to potentiate osteogenesis. A gelfoam cylinder 1.5 mm in diameter 2 mm in length was used as carrier for the peptides. Unicortical femoral defects 1.5 mm in diameter were created bilaterally in Fisher 344 rats; the left femoral defect was filled with gelfoam+PBS (Control), and the right femur with gelfoam+peptide. The samples were harvested and examined two weeks postoperatively. To examine the effect of peptide concentration on cortical bone regeneration, peptide L7 (SEQ ID NO:5) was used at 1, 5, and 20 mM. […] The time course of cortical bone repair with 20 mM L7 was examined at 5, 10, 15, and 20 days.

Assay [4] concerns bone and marrow tissue sections (mouse femur, rib). Description: Biotinylated peptide binding to bone/marrow tissue sections, Avidin-FITC fluorescence. As to the method: Methods: Four-week old Swiss Webster mice were euthanized; the femurs were excised and decalcified in 0.25M EDTA in PBS solution for 5 days, and washed in PBS for 24 hours. The femoral shafts were obtained by cutting off the proximal and distal ends of the femur. The femoral shafts were placed in Tissue-Tek O.C.T. Compound (Sukura Finetek, Torrance, Calif.) and frozen at −20° C. overnight. Sections were cut at 10 μm serially with a cryomicrotome, rinsed with 1% BSA in PBS three times. To block non-specific reaction sections were incubated with Avidin/Biotin Blocking Kit (Vector Laboratories, Inc. Burlingame, Calif.) according to the manufacturer's instructions. Following another rinse with PBS, 150 μl 10 mM solution of each biotinylated peptide (L1, L2, L7, R1, R8) was added to the slides and incubated for 1 hour at room temperature. In negative controls, only PBS was added. After rewashes with 1% BSA, 150 μl of 1:50,000 dilution of Avidin-FITC was added to each slide and incubated overnight at 4° C.
The sections were washed with 1% BSA in PBS and mounted with Vectashield (Vector Laboratories Inc., Burlingame, Calif.). Fluorescence was visualized using a Nikon eclipse E600 microscope (Nikon, Melville, N.Y.) equipped with a 535 nm wavelength fluorescein filter. Images were obtained using a Sony DKC-5000 digital camera (Sony Electronics Inc.) and processed with Adobe Photoshop software (Adobe Systems Incorporated, San Jose, Calif.).
For localization of peptide binding to cells and tissue sections, biotinylated peptides were synthesized. Fluorescein-isothiocyanate (FITC) labeled Avidin was used to localize the peptides on cells in culture and in tissue sections in vitro by epiluminescence microscopy. In addition, the biotinylated peptides were detected at concentrations as low as 1 μM in slot blots.
Cryosections of decalcified femurs harvested from 4 week BALB/c mice were incubated with biotinylated peptide and Avidin-FITC. […] The distribution of fluorescence throughout the marrow was uneven. […] In control slides incubated with PBS without peptide, none of the cells could be detected by fluorescence (not shown). […]

Where [5] appears, read: BALB/c mouse decalcified femur cryosections, biotinylated peptide and Avidin-FITC.
Where [6] appears, read: BALB/c mouse femur cryosections, biotinylated peptide.
Where [7] appears, read: Swiss Webster mouse decalcified femur cryosections, 10 mM biotinylated peptide, 1 hour, Avidin-FITC.
[8] abbreviates: Swiss Webster mouse femur cryosections, 10 mM biotinylated peptide.

“LYS-GLU-ILE-PRO-PRO-ILE-PRO-LEU-LEU-ALA-PRO-SER-GLY-GLY-GLY-SER (KEIPPIPLLAPSGGGS; listed as Homo sapiens) [Peptide L5]”: the “Effect on adherent BAEC (Experiment 1)” value in assay [1] is “the cells had lifted completely and most of the cells disappeared from the surface of the slides, leaving a lot of cell debris”. Besides, in assay [2], the “PERCENT FREQUENCY” value worked out at 17.9% and the “PHAGE SEQUENCE FREQUENCY (number of times the sequence was found in a group of plaques)” value (shortened to “PHAGE SEQUENCE FREQUENCY”) is given as 5/28. For the same substance, in assay [3], the “Histological appearance of repair tissue in the defect” value (“Histological appearance” below) is “while some ossification and cortical bone regeneration has occurred, considerable amounts of gelfoam remains in the defect”; the “Effectiveness at stimulating osteogenesis and cortical bone repair” value (“Effectiveness” for short) is “virtually no stimulatory effect on osteogenesis”.

Regarding “ASN-ASN-VAL-SER-GLN-LYS-TRP-GLN-GLN-ARG-LEU-ILE-GLY-GLY-GLY-SER (NNVSQKWQQRLIGGGS; listed as Homo sapiens) [Peptide L6]”, in assay [1], the “Effect on adherent BAEC (Experiment 1)” value is “the cells had lifted completely and most of the cells disappeared from the surface of the slides, leaving a lot of cell debris”. In assay [2], the “PERCENT FREQUENCY” value turned out to be 17.9% and the “PHAGE SEQUENCE FREQUENCY” value is 5/28. Also, the “Effectiveness” value in assay [3] is “most effective at stimulating osteogenesis and cortical bone repair”.

“LEU-PRO-TRP-THR-GLU-PRO-SER-PHE-TRP-ARG-THR-PRO-GLY-GLY-GLY-SER (LPWTEPSFWRTPGGGS; homo sapiens) [Peptide D1P1]”: the “Effect on adherent BAEC (Experiment 1)” value in assay [1] is given as “no effect, with results similar to PBS”.

In the case of “SER-SER-THR-LEU-LYS-THR-PHE-PHE-GLY-PHE-PRO-ASP-GLY-GLY-GLY-SER (SSTLKTFFGFPDGGGS; listed as Homo sapiens) [Peptide L14]”, the “Effect on adherent BAEC (Experiment 1)” value in assay [1] is “no effect, with results similar to PBS”. Besides, in assay [2], the “PERCENT FREQUENCY” value is on record as 40.0% and the “PHAGE SEQUENCE FREQUENCY” value is 12/30. Further, in assay [3], the “Histological appearance” value is “a considerable amount of gelfoam remaining in the defects, with thinner and more loosely organized cortical bone”; the “Effectiveness” value is on record as “least effective for cortical bone repair”.

In the case of “GLY-ILE-HIS-VAL-PRO-TRP-MET-PRO-PRO-VAL-ALA-PHE-GLY-GLY-GLY-SER (GIHVPWMPPVAFGGGS; listed as Homo sapiens) [Peptide L11]”, in assay [2], the “PERCENT FREQUENCY” value was 3.3% and the “PHAGE SEQUENCE FREQUENCY” value is on record as 1/30.

In the case of “LEU-LEU-ALA-ASP-THR-THR-HIS-HIS-ARG-PRO-TRP-THR-GLY-GLY-GLY-SER (LLADTTHHRPWTGGGS; listed as Homo sapiens) [Peptide L2]”, the “Fluorescence detected in femur sections incubated with peptide” value (“Fluorescence detected” below) in assay [4] (setting [5]) is “Fluorescence was detected”. Besides, in assay [4] (setting [6]), the “Cell shape preferentially recognized by peptide” value was “recognized cells with mostly irregular shapes” and the “Extent of marrow cells detected by fluorescence” value (“Extent of marrow cells detected” for short) is “did not detect as many cells”. The “Fluorescence detected” value in assay [4] (setting [7]) was “Fluorescence was detected”. Besides, in assay [4] (setting [8]), the “Cell shape preferentially recognized by peptide” value is on record as “recognized cells with mostly irregular shapes” and the “Extent of marrow cells detected” value was “did not detect as many cells”. The “Effect on adherent BAEC (Experiment 1)” value in assay [1] is reported as “no effect, with results similar to PBS”. For the same substance, in assay [2], the “PERCENT FREQUENCY” value turned out to be 32.1% and the “PHAGE SEQUENCE FREQUENCY” value is listed as 9/28. Moreover, in assay [3], the “Histological appearance” value is “a considerable amount of gelfoam remaining in the defects, with thinner and more loosely organized cortical bone”; the “Effectiveness” value is given as “least effective for cortical bone repair”.

Take “THR-MET-ARG-ASN-PRO-ILE-THR-SER-LEU-ILE-SER-VAL-GLY-GLY-GLY-SER (TMRNPITSLISVGGGS; listed as Homo sapiens) [Peptide L1]”: the “Fluorescence detected” value in assay [4] (setting [5]) was “Fluorescence was detected”. Moreover, in assay [4] (setting [6]), the “Cell shape preferentially recognized by peptide” value was “recognized the round cells preferentially” and the “Extent of marrow cells detected” value is recorded as “did not detect as many cells”. Moreover, the “Fluorescence detected” value in assay [4] (setting [7]) is given as “Fluorescence was detected”. In assay [4] (setting [8]), the “Cell shape preferentially recognized by peptide” value is given as “recognized the round cells preferentially” and the “Extent of marrow cells detected” value is reported as “did not detect as many cells”. Moreover, in assay [1], the “Effect on adherent BAEC (Experiment 1)” value was “the cells lifted and formed clusters that stained intensely”. In addition, in assay [2], the “PERCENT FREQUENCY” value was determined as 28.6% and the “PHAGE SEQUENCE FREQUENCY” value is recorded as 8/28. Moreover, in assay [3], the “Histological appearance” value was “a considerable amount of gelfoam remaining in the defects, with thinner and more loosely organized cortical bone”; the “Effectiveness” value is reported as “least effective for cortical bone repair”.
